# Laboratory results: patent US6700013B2, “Tricyclic fused heterocycle compounds, process for preparing the same and use thereof” (Nippon Suisan Kaisha, Ltd., priority 1999, dated 2004)
# Experiments:
# [1] = system: actively sensitized guinea pigs; assay: Antigen induced airway hypersensitivity, airway reactivity to acetylcholine (PC100ACh); format: in vivo, guinea pig; conditions: orally 10 mg/kg 16 hours and 2 hours before the OVA challenge; 22 to 26 hours after challenge
# Source text: Bronchial asthma is a disease characterized by bronchial contraction, airway hypersensitivity and infiltration of inflammatory cells into the airway. Airway hypersensitivity is a condition in which the airway sensitively produces a contraction response to various slight stimuli. Particularly, airway hypersensitivity is considered to be a common feature among patients suffering from allergic bronchial asthma. This experimental system in which actively sensitized guinea pigs are used is useful as a airway hypersensitivity model. […]
# The specific airway resistance (sRaw) of wake guinea pigs was measured by the double flow plethysmography with the use of airway resistance measuring equipment (“Pulmos-1”, M.I.P.S., Japan).
# […], from twenty-two to twenty-six hours after the antigen challenge, the guinea pigs were placed in an animal chamber and allowed to inhale a physiological saline and acetylcholine (hereinafter referred to as “ACh”) solutions of 0.0625, 0.125, 0.25, 0.5, 1 and 2 mg/mL , respectively, in the order named, each for one minute until sRaw came to the value at least twice the baseline sRaw (sRaw after the inhalation of the physiological saline). The ACh concentration (hereinafter referred to as “PC100ACh”) necessary for 100% increase in the baseline sRaw was calculated from the concentration of ACh and sRaw-resistance curve. […]
# [2] = system: pig tracheal smooth muscles; assay: Dilating action on contraction of tracheal smooth muscles (high K+ contraction, Magnus tube); conditions: Sus scrofa, 2 h; K+ contraction (72.7 mM); test substance final concentration 10 μM; two hours after addition; tension before addition = 100%; read-out: Relative Contraction Force (%)
# Source text: With the use of pig tracheal muscles, the action of the compounds of the present invention on contraction of tracheal muscles has been investigated. The method refers to “Smooth Muscle Manual” (published by Bun'eido Publishing Co.), pp. 125-137. The trachea cartilage mucous membrane and submucous tissue of a pig trachea were removed to prepare a specimen of tracheal smooth muscles having a major diameter of about 10 mm and a minor diameter of about 1.5 mm. This specimen was suspended in a Magnus tube which was aerated with a mixed gas of 95% of oxygen and 5% of carbon dioxide and contained nutrient solution at 37° C. and a load of 0.8 g was applied to this specimen, and after the tension of the specimen was stabilized, the nutrient solution was replaced with a high concentration K^+ solution (72.7 mM) to provoke K^+ contraction. The procedure of replacing the solution in the Magnus tube with the nutrient solution to wash the solution and provoking K^+ contraction with the high concentration K^+ solution was repeated again until the contraction force became constant. When the tension of the K^+ contraction became constant, each of the compounds described in Table 19 (the structural formula of the Comparative Example being described in the right side of the compound of the above described Example 180) was added to the high concentration K^+ solution as the test substance to measure the change in tension. The test substance was dissolved in dimethyl sulfoxide at a predetermined concentration and added to the high concentration K^+ solution in such a manner that the final concentration came to 10 μM. The trachea cartilage mucous membrane and submucous tissue of a pig trachea were removed to prepare a specimen of tracheal smooth muscles having a major diameter of about 10 mm and a minor diameter of about 1.5 mm. This specimen was suspended in a Magnus tube which was aerated with a mixed gas of 95% of oxygen and 5% of carbon dioxide and contained nutrient solution at 37° C. and a load of 0.8 g was applied to this specimen, and after the tension of the specimen was stabilized, the nutrient solution was replaced with a high concentration K+ solution (72.7 mM) to provoke K+ contraction. The procedure of replacing the solution in the Magnus tube with the nutrient solution to wash the solution and provoking K+ contraction with the high concentration K+ solution was repeated again until the contraction force became constant. When the tension of the K+ contraction became constant, each of the compounds described in Table 19 (the structural formula of the Comparative Example being described in the right side of the compound of the above described Example 180) was added to the high concentration K+ solution as the test substance to measure the change in tension. The test substance was dissolved in dimethyl sulfoxide at a predetermined concentration and added to the high concentration K+ solution in such a manner that the final concentration came to […]. Further, the final concentration of dimethyl sulfoxide added was made 0.3% or less. The change in tension was led to a strain pressure amplifier (“AP-621G3”, manufactured by Nippon Koden Kogyo) through a FD pickup transducer (“TB-611T”, manufactured by Nippon Koden Kogyo) and recorded on a recorder (“R-64V”, manufactured by Rika Electric). When the tension before replacement with the high concentration K+ solution was regarded as 0% and the last tension which was generated by the high concentration K+ solution before the addition of a test substance was regarded as 100%, the contraction force of the tracheal smooth muscle two hours after addition of a test substance was shown as relative percentage. […]
# [3] = system: actively sensitized guinea pigs; assay: Inhibition of immediate (IAR) and late (LAR) asthmatic response, specific airway resistance (sRaw); format: in vivo, guinea pig; conditions: orally 10 mg/kg one hour before OVA challenge
# Procedure: It is reported [Pepys, J. and Hutchcroft, B. J., Bronchial provocation tests in etiologic diagnosis and Analysis of asthma, Am. Rev. Respir. Dis., 112, 829-859 (1975)] that when asthmatic patients are allowed to inhale an antigen, immediate asthmatic response (hereinafter referred to as “IAR”) whose peak is 15 to 30 minutes after inhalation is provoked and recovery from this response is within two hours; however, in 60% of the asthmatic patients late asthmatic response (hereinafter referred to as “LAR”) appears 4 to 12 hours after the inhalation of the antigen. […] On the other hand, it is known that when the guinea pigs actively sensitized with an antigen are allowed to inhale the antigen again, biphasic airway responses are caused. Accordingly, as the animal model line of IAR and LAR which are recognized in the above described asthmatic patients, the asthmatic model using guinea pigs is widely used in the evaluation of drugs for asthma and the like. […]
# The specific airway resistance (hereinafter referred to as “sRaw”) was measured, 1 minute, 10 minutes and 30 minutes after challenge and furthermore, 1 hour, 2 hours, 3 hours, 4 hours, 5 hours, 6 hours, 7 hours, 8 hours and 24 hours, each time for the duration of 1 minute with the use of airway resistance measuring equipment (“Pulmos-1”, M.I.P.S., Japan). […]
# [4] = system: actively sensitized guinea pigs; assay: Number of inflammatory cells in bronchoalveolar lavage fluid after antigen challenge; format: in vivo, guinea pig; conditions: orally 10 mg/kg one hour before OVA challenge
# Procedure: It is reported [Pepys, J. and Hutchcroft, B. J., Bronchial provocation tests in etiologic diagnosis and Analysis of asthma, Am. Rev. Respir. Dis., 112, 829-859 (1975)] that when asthmatic patients are allowed to inhale an antigen, immediate asthmatic response (hereinafter referred to as “IAR”) whose peak is 15 to 30 minutes after inhalation is provoked and recovery from this response is within two hours; however, in 60% of the asthmatic patients late asthmatic response (hereinafter referred to as “LAR”) appears 4 to 12 hours after the inhalation of the antigen. […] On the other hand, it is known that when the guinea pigs actively sensitized with an antigen are allowed to inhale the antigen again, biphasic airway responses are caused. Accordingly, as the animal model line of IAR and LAR which are recognized in the above described asthmatic patients, the asthmatic model using guinea pigs is widely used in the evaluation of drugs for asthma and the like. Furthermore, it is known that in the IAR and LAR model of guinea pigs, when actively sensitized guinea pigs are exposed to an antigen, infiltration of inflammatory cells into the airway occurs together with the biphasic airway contraction to cause various inflammatory disorders to airway tissues thereby. Therefore, the number of inflammatory cells in the bronchoalveolar lavage fluid is widely used as the index for the infiltration of inflammatory cells into the airway. Each of the above described actions in the IAR and LAR model of guinea pigs was examined with the compounds of the present invention.
# Guinea pigs were allowed to inhale a 1% ovalbumin (“OVA”, sigma-Aldrich Co., U.S.A.) physiological saline for 10 minutes daily continuously for 8 days using of an ultrasonic nebulizer (“NE-U12”, Omron, Japan).
# One week after the final sensitization, the guinea pigs were allowed to inhale a 2% “OVA” physiological saline for 5 minutes using of the nebulizer. Twenty-four hours and one hour before challenge, the guinea pigs were dosed with metyrapone (10 mg/kg, Sigma-Aldrich Co., U.S.A.) intravenously, and dosed with pyrilamine (10 mg/kg, Sigma-Aldrich Co., U.S.A.) intraperitoneally 30 minutes before challenge.
# Each of the test substances (Compounds of Examples 1 and 4) was formed into a suspension with a 0.5% carboxymethyl cellulose sodium salt (hereinafter referred to as “CMC-Na”) solution at a concentration of 2 mg/mL. One hour before challenge, the guinea pigs were orally dosed with the suspension of the test substance with such a dose so as to be 10 mg/kg. For the control group the medium (a 0.5% CMC-Na solution) was used.
# Twenty-three to twenty-four hours after the antigen challenge, the abdominal aorta of the guinea pigs was cut under intraperitoneal anesthesia with “Nembutal” (50 mg/kg) to remove blood and the chest was opened. A tube was inserted in the bronchus and fixed thereto and through this tube, 5 mL (37° C.) of a physiological saline was injected and sucked therethrough; this procedure was repeated twice (10 mL in total) and the recovered fluid was regarded as the bronchoalveolar lavage fluid (hereinafter referred to as “BALF”). BALF was centrifuged at 1,100 rmp at 4° C. for 10 minutes to obtain a precipitate (a pellet). This pellet was suspended in 1 mL of a physiological saline and a Turkliquid was added thereto and the number of leukocytes per μL was counted with a leukocyte counter plate. Centrifugation was repeated under the above described conditions and rabbit serum was added to the obtained pellet to prepare a smear preparation. After drying, the preparation was subjected to the May Grunwald-Giemsa stain. The number of leukocytes was counted by a microscope and the ratio to the total number of cells of neutrophils, eosinophils, macrophages and lymphocytes was obtained and the number of cells per μL was calculated on the basis of this ratio.
# The obtained test results were shown by mean values and standard deviations and the student's t-test was carried out. […]
# Sprague-Dawley line rats = assay: Toxicity study of two-week repeated-dose oral administration with rats; format: in vivo; conditions: male, oral, 0, 125 and 500 mg/kg/day repeatedly for two weeks
# Procedure: In order to study the toxicity by repeated-dose administration of compounds, the compounds were dosed orally to Sprague-Dawley line rats (three male rats per group) with 0, 125 and 500 mg/kg/day (a 0.5 w/v % CMC-Na solution) repeatedly for two weeks.
# [5] = 24 hours after antigen challenge, average
Compound,PC100ACh [1],activity at 10 µM [2],"IAR (% change in sRaw) inhibited by, compared to the control group [3]","LAR (AUC) inhibited by, compared to the control group ([3]; AUC from 4 hours to 8 hours)",change in number of eosinophils compared to the control group [4],change in number of lymphocytes compared to the control group [4],change in number of neutrophils compared to the control group [4],change in total number of cells compared to the control group [4],"number of cells of eosinophils in bronchoalveolar lavage fluid [4, 5]","number of cells of lymphocytes in bronchoalveolar lavage fluid [4, 5]","number of cells of macrophages in bronchoalveolar lavage fluid [4, 5]","number of cells of neutrophils in bronchoalveolar lavage fluid [4, 5]","total number of cells in bronchoalveolar lavage fluid [4, 5]",Results (toxicity findings) (Sprague-Dawley line rats)
"C[C@@H]1C[C@H]2[C@@H]3CCC4=CC(=O)C=C[C@]4(C)[C@@]3(F)[C@@H](O)C[C@]2(C)[C@@]1(O)C(=O)CO [dexamethasone, Dexamethasone]",1.14 mg/mL,–,–,–,–,–,–,–,–,–,–,–,–,–
"CSc1ccc2c(c1)CC(=O)c1c(O)cc(O)cc1S2 [Example 1, 2-Methylthio-7,9-dihydroxy-10,11-dihydrodibenzo[b,f]thiepin-10-one]",–,0%,70%,77%,tendency,tendency,tendency,significant decrease,810 µL⁻¹,21 µL⁻¹,"1,872 /μL","1,072 /μL","3,775 /μL",No abnormalities were recognized
